# Values quoted from earlier work, collected in US20240424000A1, “LONG-ACTING INTRA-ARTICULAR DOSAGE FORMS CONTAINING FLUTICASONE PROPIONATE AND USE THEREOF” (Eupraxia Pharmaceuticals Inc., priority 2023, published 2024).
# Tested on: cartilage
# Settings: IA every 12 weeks for 2 years; McAlindon et al. 2017
compound,measurement,value
"CC1(C)O[C@@H]2C[C@H]3[C@@H]4CCC5=CC(=O)C=C[C@]5(C)[C@@]4(F)[C@@H](O)C[C@]3(C)[C@]2(C(=O)CO)O1 [TCA, triamcinolone acetonide]",effect of chronic exposure on cartilage,led to increased cartilage loss
